Molecules are shown by their SMILES.

In the test the test system is LC3-II protein (muscle autophagy) in skeletal muscle (quadriceps). The test can be described thus: LC3-II western blot (normalized to GAPDH) in quadriceps of mice fed defined diets, with or without autophagy inducer in drinking water. Format: in vivo, C57b16/J mice. The note with it: 4 weeks ad libitum, 3 mM in drinking water. The protocol:
10-15 week-old C57b16/J mice were fed during ad libitum for 4 weeks with one of: a standard diet, a diet rich in proteins and poor in carbohydrates (high protein isocaloric), or a diet poor in proteins and rich in carbohydrates (low protein isocaloric). Each group was treated or not with 3 mM of autophagy inducer (e.g., spermidine) in the drinking water. Standard diet was composed of 16% fats (Soybean oil), 20% proteins (casein) and 64% carbohydrates (40% cornstarch, 14% dextrinized cornstarch, 10% sucrose). Low protein diet was composed of 16% fats (Soybean oil), 5% proteins (casein) and 79% carbohydrates (62% cornstarch, 10% dextrinized cornstarch, 7% sucrose). […]
Total protein lysates were extracted from 30-50 mg of tissues homogenized in 20 ml/g of RIPA buffer (150 mM sodium chloride, 50 mM Tris pH: 8, 1% Triton X-100, 0.5% deoxycolate, 0.1% SDS, protease inhibitors cocktail) with a tissue dissociator (gentleMACS Miltenyi Biotec). Protein concentration was determined by BCA assay, and samples were prepared adding 4X LDS sample buffer (Invitrogen). […] Membranes were incubated with LC3 (Novus Biologicals 2220) and GAPDH (Cell Signaling 2118) antibodies and detected with ECL substrates (Pierce). Protein quantification was performed by densitometric analysis of images using ImageJ software. […]

On to `NCCCCNCCCN` [spermidine], for which the “muscle autophagy (LC3-II protein amount normalized to GAPDH)” value by setting is: (high-protein isocaloric diet (60% proteins), ***p<0.001) “synergistically induces muscle autophagy”; (low protein isocaloric diet (5% proteins)) “inactive”.

The record behind these values is US20230285321A1, “COMPOSITIONS AND METHODS USING A COMBINATION OF AUTOPHAGY INDUCER AND HIGH PROTEIN FOR INDUCTION OF AUTOPHAGY” (SOCIETE DES PRODUITS NESTLE S.A., priority 2018, published 2023).
